For 62 compounds, logP, solubility and log10 OH rate constant (cm³/molecule/s) results are on record in the OPERA property sets (Mansouri et al. 2018).

Values after ≈ are worked out from the molar mass of the structure shown. Where a SMILES comes first, the peptide text is derived from it.

Settings in the first data set: not given
`CCCNC1=NC(=O)C(=Cc2ccc([N+](=O)[O-])o2)S1`: the logP (in general, the decadic logarithm of the partition coefficient of the neutral form, usually between octanol and water) was 1.24. Compound `C=Cc1cc(C)ccc1C` returned a logP of 4.16. On the same count and under the same terms, the same measure for `CCCCCOC(=O)c1cc(=O)[nH]c(=O)[nH]1`: 1.62. `CC(C)C1(C)N=C(c2ncccc2C(=O)O)NC1=O` (stereo unspecified) registered a logP of 0.22. `Cc1cc(Cc2c(Cl)cccc2Cl)c(Cl)cc1Cl` returned a logP of 6.73.

The compound `N#CCCCCC#N` had a logP of -0.32.

Consider `Cc1ccc(C(C)C)c(OCCN(C)C)c1`, for which the logP is 3.79. With `Clc1cc(Cl)c2cc(Cl)ccc2c1`, the logP worked out at 5.35 and the solubility (commonly the dissolved amount per volume that the medium holds) was found to be 0.000278 mM (≈ 6.44e-05 mg/mL). Compound `COC(=O)c1ccccc1S(=O)(=O)NC(=O)Nc1nc(C)cc(C)n1` displayed a logP of 1.2. `CCCCOC(=O)c1ccccc1C(=O)OCCCC` yielded a logP of 4.5. On the same count and under the same terms, the value for `CCOC(=O)CCn1nc2ccccc2n1` was 2.12; that for `O=C1CCC2CCC(=O)N12` was -1.11. Still for that read-out and setting: the same measure for `CCON=C(CC)C1=C(O)CC(c2c(C)cc(C)cc2C)CC1=O` (stereo unspecified): 4.46.

On to `CC(=O)N[C@@H](CC(C)C)C(=O)N[C@H](C(=O)N[C@@H](CC(C)C)C(N)=O)[C@@H](C)O` (Ac-Leu-Thr-Leu-NH2), for which the logP amounted to 0.24. On the same count and under the same terms, the value for `OC(CN1C2CCCCC21)Cn1ccnc1` (stereo unspecified) was 1.07; that for `COC(=O)[C@@H](N)Cc1ccc(O)c(O)c1` was -0.21.

The same data set, now with this note: 20 °C.
On to `Oc1cc(O)c2ccccc2c1`, for which the solubility worked out at 11.2 mM (≈ 1.8 mg/mL). In turn, `CN(C)c1ccc(C(=O)c2ccc(N(C)C)cc2)cc1` registered a solubility of 1.49 mM (≈ 0.4 mg/mL).

In turn, `CCOC(C)(C)C` gave a solubility of 117 mM (≈ 12 mg/mL). `N#CCCCCC#N`: the solubility was 740 mM (≈ 80 mg/mL). On the same count and under the same terms, the same measure for `C=Cc1ccccn1`: 262 mM (≈ 27.5 mg/mL).

Staying with this data set, now noted: 22.0 °C.
Compound `CC(C)CO[N+](=O)[O-]` had a log10 OH rate constant (cm³/molecule/s) of -12.

The data set is the same for the next values; noted with them: 23.0 °C.
Turning to `C=CC(C)(O)CCC=C(C)C` (stereo unspecified), the log10 OH rate constant (cm³/molecule/s) is -9.8. `C=C1C2CCC(C2)C1(C)C` (stereo unspecified) gave a log10 OH rate constant (cm³/molecule/s) of -10.3.

Still in this data set, the particulars now being: 25 °C.
With `C=C(C)C1CC=C(C)CC1` (stereo unspecified), the solubility was 0.0777 mM (≈ 0.0106 mg/mL).

In the case of `COC(=O)c1ccccc1C(=O)OC`, the solubility was found to be 20.6 mM (≈ 4 mg/mL). The compound `O=C1CCC(N2C(=O)c3ccccc3C2=O)C(=O)N1` (stereo unspecified) showed a solubility of 2.11 mM (≈ 0.545 mg/mL).

In the case of `CC(C)CO[N+](=O)[O-]`, the solubility is 11.2 mM (≈ 1.33 mg/mL). Compound `CC(C)(C)c1cccc(C(C)(C)C)c1O` came in with a solubility of 0.0121 mM (≈ 0.0025 mg/mL).

`COC(=O)COc1ccc(Cl)cc1Cl` showed a solubility of 1.1 mM (≈ 0.258 mg/mL).

`CCCc1ccc(O)cc1` came in with a solubility of 9.38 mM (≈ 1.28 mg/mL).

Take `Cc1ccc(CO)cc1`: the solubility came to 63.1 mM (≈ 7.71 mg/mL). The same measure, in the same setting: the value for `O=C(O)C(Br)Br` was 9690 mM (≈ 2110 mg/mL).

`Cc1ccc2c(ccc3ccccc32)c1` gave a solubility of 0.00146 mM (≈ 0.00028 mg/mL). Regarding `FC(Cl)C(F)(F)F` (stereo unspecified), the solubility was 11 mM (≈ 1.5 mg/mL). On the same count and under the same terms, the value for `COc1ccccc1OCC(O)CO` (stereo unspecified) was 252 mM (≈ 50 mg/mL); that for `CCC(C)=NO` was 1150 mM (≈ 100 mg/mL); that for `CCOc1nc(F)cc2nc(S(=O)(=O)Nc3c(Cl)cccc3C(=O)OC)nn12` was 0.0372 mM (≈ 0.016 mg/mL). Still for that read-out and setting: the same measure for `Cc1cccc(Oc2ccc([N+](=O)[O-])cc2)c1`: 0.0218 mM (≈ 0.005 mg/mL); for `CCCCOC(=O)c1ccccc1C(=O)OCc1ccccc1`: 0.00861 mM (≈ 0.00269 mg/mL); for `CCCCCO[N+](=O)[O-]`: 2.7 mM (≈ 0.36 mg/mL). Same read-out and setting: the same measure for `FC(F)(F)C(F)(Cl)Cl`: 0.801 mM (≈ 0.137 mg/mL). `Clc1cccc(Cl)c1` showed a solubility of 0.85 mM (≈ 0.125 mg/mL).

Compound `CC(C)(C)NCC(O)COc1cccc2c1C[C@H](O)[C@H](O)C2` (stereo partly specified) had a solubility of 26.9 mM (≈ 8.33 mg/mL). As to `Clc1c(Cl)c(Cl)c2c(oc3c(Cl)c(Cl)c(Cl)c(Cl)c32)c1Cl`, the solubility was 2.61e-09 mM (≈ 1.16e-09 mg/mL). For `CCC(=O)OCC(C)C`, the solubility came to 13.1 mM (≈ 1.7 mg/mL). The same measure, in the same setting: the value for `CC(C)NC(C)C` was 1090 mM (≈ 110 mg/mL); that for `CCF` was 44.9 mM (≈ 2.16 mg/mL).

The data set is the same for the next values; noted with them: 25.0 °C.
`CCC(CC)(CC)CC` returned a log10 OH rate constant (cm³/molecule/s) of -11.3. Turning to `OC(C(F)(F)F)C(F)(F)F`, the log10 OH rate constant (cm³/molecule/s) is -13.6. As for `CC(C)(C)Cl`, the log10 OH rate constant (cm³/molecule/s) was -12.4. `CC(C)[N+](=O)[O-]` came in with a log10 OH rate constant (cm³/molecule/s) of -12.6. In turn, `O=C(O)C(F)(F)F` returned a log10 OH rate constant (cm³/molecule/s) of -12.9. On to `FC(F)(F)C(F)(F)C(F)(F)C(F)(F)N(C(F)(F)C(F)(F)C(F)(F)C(F)(F)F)C(F)(F)C(F)(F)C(F)(F)C(F)(F)F`, for which the log10 OH rate constant (cm³/molecule/s) was below -16.2.

`O=CC(F)(Cl)Cl` returned a log10 OH rate constant (cm³/molecule/s) of -11.9.

Regarding `COCC(C)OC` (stereo unspecified), the log10 OH rate constant (cm³/molecule/s) is -10.5.

`C1CN2CCN1CC2` returned a log10 OH rate constant (cm³/molecule/s) of -10.7. `FC(F)C(F)(F)C(F)(F)C(F)F` registered a log10 OH rate constant (cm³/molecule/s) of -14.3. Turning to `CCCCCC(C)=O`, the log10 OH rate constant (cm³/molecule/s) is -10.9. The compound `CCCBr` gave a log10 OH rate constant (cm³/molecule/s) of -11.9.

Regarding `FC(F)(F)CCC(F)(F)F`, the log10 OH rate constant (cm³/molecule/s) was -14.1. Turning to `C=Cc1ccccn1`, the log10 OH rate constant (cm³/molecule/s) is -10.2.

Staying with this data set, now noted: 26 °C.
The compound `CCNc1nc(O)nc(NC(C)C)n1` gave a solubility of 0.0299 mM (≈ 0.0059 mg/mL).

Still in this data set, the particulars now being: 30 °C.
`Nc1ccccc1[N+](=O)[O-]` had a solubility of 10.6 mM (≈ 1.47 mg/mL). Consider `CN(C)C`, for which the solubility stood at 15100 mM (≈ 890 mg/mL).
